The results in this text go back to patent publication US5621133A (priority 1995, dated 1997).

As usually defined, the EC50 is the concentration needed to bring the measured effect to its halfway point. As usually defined, the Ki is the dissociation constant of the complex between target and ligand, obtained from inhibition or displacement.

Structures can show the parent of a compound that is named as a salt. A value given as a limit tells only on which side of the number the result lay.

Assay [1] relates to dopamine D-1 receptor. As to conditions: for Intrinsic Activity (adenylate cyclase assay): dopamine = 100, goldfish retina or rat striatum; for EC50: read-out: EC50 (agonist activity in adenylate cyclase assay), tissue from goldfish retina or rat striatum.
Experimental: In order to determine agonist activity, cell-free tissue homogenates are incubated in an ionic buffer solution containing ATP and the compound being evaluated. The tissue was obtained from either goldfish retina or rat striatum.
Assay [2] addresses dopamine D-1 receptor (Rattus norvegicus, UniProt P18901). In words: biochemical. The note with it: D-1 Ki, rat caudate, [125I]SCH-23982.
Text: The compounds compete with the radiolabeled ligand for occupancy of the receptors and the molar potency of each compound was quantified.
The Ki values are inversely proportional to the affinity of the compound for the receptor.
In assay [3] the target is dopamine D-2 receptor (Rattus norvegicus, UniProt P61169). As to the kind of experiment: biochemical. Format: binding. The note with it: rat caudate, [125I]-p-aminophenylethyl spiroperidol; read-out: D-2 Ki. As for the experimental part:
Homogenized rat caudate was the source of the D-2 receptors. […] The molar affinity of the compound for the receptor binding site was calculated by the same method used for the D-1 receptor assay, assuming a competitive interaction between the compound and the radiolabeled ligand.

Sequence of dopamine D-1 receptor (Rattus norvegicus, UniProt P18901) (P18901 whole entry): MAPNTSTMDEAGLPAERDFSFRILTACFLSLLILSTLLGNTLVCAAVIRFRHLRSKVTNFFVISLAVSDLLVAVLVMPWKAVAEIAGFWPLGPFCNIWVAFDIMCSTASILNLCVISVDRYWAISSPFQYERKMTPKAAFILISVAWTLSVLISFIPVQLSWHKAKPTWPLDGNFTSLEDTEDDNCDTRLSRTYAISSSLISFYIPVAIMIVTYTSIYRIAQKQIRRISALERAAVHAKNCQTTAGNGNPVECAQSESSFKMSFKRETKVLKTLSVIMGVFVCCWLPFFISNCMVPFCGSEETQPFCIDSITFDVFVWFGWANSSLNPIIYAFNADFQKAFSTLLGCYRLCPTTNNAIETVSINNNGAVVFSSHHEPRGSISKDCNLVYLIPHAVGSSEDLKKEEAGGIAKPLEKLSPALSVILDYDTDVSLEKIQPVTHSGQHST
Sequence of dopamine D-2 receptor (P61169 whole entry): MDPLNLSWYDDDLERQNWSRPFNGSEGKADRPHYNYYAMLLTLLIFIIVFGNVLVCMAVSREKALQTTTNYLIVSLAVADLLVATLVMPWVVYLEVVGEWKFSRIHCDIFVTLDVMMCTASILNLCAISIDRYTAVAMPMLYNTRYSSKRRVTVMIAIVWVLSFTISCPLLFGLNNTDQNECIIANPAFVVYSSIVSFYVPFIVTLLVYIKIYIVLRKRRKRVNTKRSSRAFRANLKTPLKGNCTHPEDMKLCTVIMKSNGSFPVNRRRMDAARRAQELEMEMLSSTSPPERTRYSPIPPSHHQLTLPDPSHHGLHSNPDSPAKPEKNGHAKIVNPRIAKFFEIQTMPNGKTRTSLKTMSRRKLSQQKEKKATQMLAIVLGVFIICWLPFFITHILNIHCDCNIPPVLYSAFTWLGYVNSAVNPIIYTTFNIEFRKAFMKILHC

For `NCC1=CC2(CCCCCCC2)Cc2c1ccc(O)c2O` [Example 191], in assay [1], the “Intrinsic Activity (adenylate cyclase assay)” value (shortened to “Intrinsic Activity”) was found to be 58 and the EC50 came to 1.5 µM. Affinity in assay [2] was put at a Ki of 1.1 µM. Moreover, in assay [3], the inhibitory constant (Ki) is more than 10 µM.
Taken in the same sequence, the figures for `NCC1=CC(c2ccc(O)cc2)Cc2c1ccc(O)c2O` (centres unmarked) [Example 39] were 84, 0.05 µM, 1.4 µM and more than 10 µM.
The like results for `NC[C@H]1O[C@@H](CN2CCOCC2)Cc2c1ccc(O)c2O` (relative stereo) [Example 157] were, in that order, 111, 0.52 µM, 1.3 µM and 16 µM.
As to `C#CCNC[C@H]1O[C@@H](C2CCCCC2)Cc2c1ccc(O)c2O` (relative stereo) [Example 118], in assay [1], the “Intrinsic Activity” value is 87 and the EC50 is 0.056 µM. The compound also registered an inhibition constant (Ki) in assay [2] of 2.5 µM. Further, the Ki in assay [3] turned out to be 6.7 µM.
With `CN(C)C[C@@H]1O[C@H](C2(c3ccccc3)CCCCC2)Cc2c1ccc(O)c2O` (relative stereo) [Example 229], in assay [1], the “Intrinsic Activity” value is reported as 34 and the EC50 was found to be 0.33 µM. In assay [2], this compound gave an inhibition constant Ki of 0.26 µM. Moreover, in assay [3], the Ki worked out at 3.6 µM.
Taken in the same sequence, the figures for `CC(C)=CCCC(C)[C@@H]1Cc2c(ccc(O)c2O)[C@H](CN)O1` (some centres unmarked) [Example 74] were 105, 0.84 µM, 0.1 µM and 2 µM.
Regarding `NC[C@H]1O[C@@H](CN2CCCC2)Cc2c1ccc(O)c2O` (relative stereo) [Example 156, [1,3-cis]1-Aminomethyl-3,4-dihydro-5,6-dihydroxy-3-pyrrolidinylmethyl-1H-2-benzopyran Dihydrochloride], in assay [1], the “Intrinsic Activity” value was determined as 127 and the half-maximal effective concentration (EC50) stood at 9.5 µM. The compound also had a Ki in assay [2] of 6.3 µM. Besides, the Ki in assay [3] came out at 16 µM.
Taken in the same sequence, the figures for `NC[C@@H]1O[C@H](C2CCCCC2)Cc2c1ccc1c2OC2(CCCCC2)O1` (relative stereo) [Example 63] were 43, 0.71 µM, 71 µM and more than 10 µM.
In the case of `CCCCCCCCCC[C@@H]1Cc2c(ccc(O)c2O)[C@H](CN)O1` (relative stereo) [Example 65], in assay [1], the “Intrinsic Activity” value came to 91 and the concentration giving a half-maximal response (EC50) was 0.32 µM. In assay [2], this compound had a Ki of 14 µM. In addition, the inhibition constant (Ki) in assay [3] was determined as 16 µM.
The like results for `CCCC(=O)NC[C@@H]1Cc2c(ccc(O)c2O)[C@H](CN)O1` (relative stereo) [Example 169] were, in that order, 150, 0.2 µM, 8 µM and more than 10 µM.
For `NCC1=CC2(CCCCCCCC2)Cc2c1ccc(O)c2O` [Example 232], in assay [1], the “Intrinsic Activity” value came to 49 and the EC50 was 1.7 µM. In assay [2], this compound came in with an inhibitory constant (Ki) of 3.8 µM. Moreover, the inhibition constant (Ki) in assay [3] is more than 10 µM.
Taken in the same sequence, the figures for `C=CCC[C@@H]1Cc2c(ccc(O)c2O)[C@H](CN)O1` (relative stereo) [Example 73] were 138, 0.16 µM, 0.064 µM and 34 µM.
The like results for `NC[C@@H]1O[C@H](CCC2CCCCC2)Cc2c1ccc(O)c2O` (relative stereo) [Example 91] were, in that order, 135, 0.67 µM, 0.29 µM and more than 10 µM.
Taken in the same sequence, the figures for `NCC1=CC(c2cccc(O)c2)Cc2c1ccc(O)c2O` (centres unmarked) [Example 38] were 91, 0.033 µM, 0.12 µM and 30 µM.
